The source of these data is patent publication US20250051337A1 (priority 2021, published 2025).

Some results are limits rather than exact numbers.

The target of series [1] is T1, STK4 (Homo sapiens (Human), UniProt Q13043). The series is described as follows: ADP-Glo kinase assay, STK4. The series is classed as biochemical. The essentials:
(§1)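 ADP-Glo readout at 50 μM ATP with 50 ng full-length enzyme: STK4 on 300 μg/mL Axltide substrate, STK3 on 250 μg/mL myelin basic protein. Done as three independent runs in triplicate.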
(In general: ADP-Glo turns the ADP formed in a reaction into a luminescent signal.)

Series [2] has as its target T2, STK3 (Homo sapiens (Human), UniProt Q13188). The series is described as follows: ADP-Glo kinase assay, STK3. The series is classed as biochemical. The following applies: ADP-Glo, 50 μM ATP; read-out: STK3 IC50. A digest of the protocol: as §1
In series [3] the test system is phosphorylated MOB1 (Thr35) in HEK293 cells. The series is described as follows: Western blot analysis of p-MOB1 in HEK293 cells. The series is classed as cell-based. Particulars: 10 μM, 4 h, then H2O2 50 μM 2 h, vs DMSO. The protocol:
Cells were harvested by pipetting, pelleted by centrifugation at 1400 rpm for 4 min, and lysed in RIPA buffer for 10 min at room temperature. The lysates were centrifuged at 12,000×g at room temperature (RT) for 10 min and the supernatants were recovered. Protein concentrations in the supernatants were determined using a BCA assay (Pierce/Thermo Scientific). Proteins were separated on NovexTM WedgeWellTM 4-20% Tris-Glycine Gels (Invitrogen; Carlsbad, CA, USA) and transferred to polyvinylidene difluoride (Trans-Blot® TurboTM Transfer Pack) membranes. […] Danvers. MA. USA). Blots were rinsed three times with TBST and then incubated in 5% nonfat milk containing horseradish peroxidase (HRP)-conjugated mouse anti-rabbit IgG secondary Ab (Cell Signaling Technology) for 1 h at RT. Blots were washed three times with TBST, developed using Pierce® ECL Western Blotting reagent, and imaged and analyzed using with ImageJ software. Quantitative data are expressed as the level of phosphorylated MOB1 normalized to total MOB1. To confirm that the cellular mechanism of action of our inhibitors was through inhibition of Hippo pathway signaling. […] Inhibition of STK3/4 in vitro and in vivo can produce decreased phosphorylation of the Hippo pathway adapter protein MOB1 at […].
(In general: Immunoblotting shows a protein as a band on a membrane.)

A short description of series [4]: In vivo plasma and liver concentrations, 20 mg/kg intraperitoneal. Particulars: female, C57BL/6J, mouse, ip, 20 mg/kg. The protocol:
All animal procedures were approved by the Sanford Burnham Prebys Medical Discovery Institute Institutional Animal Care and Use Committee and were performed according to the NIH guidelines for the Care and Use of Laboratory Animals. Adult female C57BL/6J mice were purchased from Jackson Laboratories and housed with free access to food and water on a 12 h light/dark cycle. Compounds were formulated in 5% DMSO, 10% Tween-80, and 85% H2O and injected intraperitoneally at 10 or 20 mg/kg. Blood samples were collected retro-orbitally at the indicated times and plasma was prepared by centrifugation. Livers were collected post mortem at the indicated times.
For quantification of compound, plasma samples were extracted with acetonitrile: water 4:1 with 0.1% formic acid containing indomethacin as an internal standard. Samples were centrifuged and the supernatants were diluted with acetonitrile: water and analyzed by LC-MS/MS using a Shimadzu Nexera X2 High-performance liquid chromatography (HPLC) (Shimadzu Scientific Instruments: Kyoto, Japan) coupled to an AB Sciex 6500 QTRAP (AB Sciex LLC: Toronto, Canada).
Adult female C57BL/6 mice (n=3/group) were intraperitoneally injected with vehicle or test compound (20 mg/kg), and blood samples and livers were collected at 30 min and 1 h post-injection, respectively. Plasma concentrations of all 13 compounds were >1.4 μM at 30 min after injection, and 10 compounds had liver concentrations >1.0 μM at 1 h after injection, as measured by LC-MS/MS, with particularly high plasma concentrations obtained with compounds 11 (15.9 μM), 16 (11.6 μM) and 105 (8.7 μM) (Table 5). To evaluate target engagement in vivo, the total and phosphorylated MOB1 levels in livers collected at 1 h post-injection was examined.
Tween 80 and water and were administered to mice by intraperitoneal injection. Blood samples and livers were collected at 30 min and 1 h post-dose, respectively. Plasma concentrations and relative pMOB1 levels were determined by LC-MS/MS and western blot analysis, respectively. (n=3).

For series [5], the target named is T2, STK3. The series is described as follows: Thermal shift assay (ThermoFluor differential scanning fluorimetry). It is filed as binding. The following applies: read-out: ΔTm. For orientation: In DSF a fluorescence change marks the thermal transition of the protein.
Protocol: Temperature-dependent protein unfolding profiles were measured using a Real-Time PCR Mx3005p machine (Stratagene: San Diego, CA, USA). Data evaluation and melting temperature calculation were performed using Protein Thermal Shift™ Software v1.2.
To further evaluate binding of these compounds to STK3/4, differential scanning fluorimetry (protein thermal shift using ThermoFluor technology) assay was used to benchmark the capacity to stabilize the kinase domain. The melting temperature (Tm) of STK3 or STK4 was measured in the presence of vehicle (DMSO) or 6, 11 or 23.
Series [6] has as its system YAP/TAZ-TEAD activity (8×GTIIC-luciferase) in HEK293 cells. The series is described as follows: YAP-TAZ-TEAD luciferase assay. The series is classed as cell-based. The following applies: 10 μM, 48 h, vs DMSO. The protocol: 8×GTIIC-luciferase was a gift from Stefano Piccolo (Addgene plasmid #34615, http://n2t.net/addgene: 34615: RRID: Addgene_34615). HEK293 cells were transfected with 8×GTIIC-luciferase plasmid and control Renilla luciferase plasmid using jetPRIME transfection reagent (Polyplus-transfection RSA: New York, NY. USA) for 24 h and cultured in Dulbeco's Modified Eagle Media (DMEM) Glutamax supplemented with 10% Fetal Bovine Serum (FBS), antibiotic/antimycotic, and sodium pyruvate (Gibco. Thermo FisherScientific: Waltham. MA. USA). The transfected cells were treated with 10 μM compound in triplicate and incubated for 48 h at 37° C. Firefly and Renilla luminescence were detected with a Dual-Glo Luciferase Assay System (Promega #E2920) according to the manufacturer's recommendations. The ratio of firefly to Renilla luminescence was calculated for each well and normalized to the ratio in control cells incubated with DMSO.
STK3/4 can negatively regulate the activity of the YAP/TAZ-TEAD protein complex and, accordingly, inactivation of these kinases reduces the transcription of YAP/TAZ-TEAD target genes. […] The results confirmed the intracellular on-target activity of our potent compounds for inhibiting STK3 and STK4 activity and targeting gene expression in the Hippo signaling pathway.

For series [7], the target named is T2, STK3. Nature of the series: NanoBRET intracellular kinase assay, STK3. The series is classed as cell-based. The protocol:
(§2) Full-length STK3, STK4, and LRRK2 kinase was cloned in-frame with a C-terminal NanoLuc-fusion (Promega: Madison, WI, USA) and the plasmid was transfected into HEK293T cells using FuGENE HD (Promega, E2312). […] After 2 h at 37° C. in a 5% CO2 atmosphere, NanoBRET NanoGlo Substrate+Extra-cellular NanoLuc Inhibitor (Promega, N2540) was added, and filtered luminescence was measured on a PHERAstar plate reader (BMG Labtech; Ortenberg, Germany) equipped with a lumi-nescence filter pair (450 nm BP filter (donor) and 610 nm LP filter (acceptor)).
(§3) This assay measured the apparent affinity of test compounds by competitive displacement of the NanoBRET™ tracer, reversibly bound to a NanoLuc® luciferase-kinase fusion in cells. To evaluate potential off-target activity of the inhibitors, the inhibition of LRRK2 in live cells by the STK3/4 inhibitors compounds described herein were measured. […] A 50 nM tracer and these compounds were added to cells and incubated for 2 h.

The target of the next series is LRRK2 (Homo sapiens (Human), UniProt Q5S007). The series is described as follows: NanoBRET intracellular kinase assay, LRRK2. It is filed as cell-based. Particulars: transfected HEK293 cells, 2 h. The protocol: Full-length STK3, STK4, and LRRK2 kinase was cloned in-frame with a C-terminal NanoLuc-fusion (Promega: Madison, WI, USA) and the plasmid was transfected into HEK293T cells using FuGENE HD (Promega, E2312). After 20 h, transfected cells were mixed with inhibitors and 50 nM NanoBRET Kinase Tracer K10 (Promega) and reseeded at a density of 2× 10^5 cells/mL in Opti-Minimal Essential Medium (MEM) without phenol red (Life Technologies; Carlsbad, CA, USA) in 384-well plates (Greiner 781-207; Kremsmunster, Austria). After 2 h at 37° C. in a 5% CO2 atmosphere, NanoBRET NanoGlo Substrate+Extra-cellular NanoLuc Inhibitor (Promega, N2540) was added, and filtered luminescence was measured on a PHERAstar plate reader (BMG Labtech; Ortenberg, Germany) equipped with a lumi-nescence filter pair (450 nm BP filter (donor) and 610 nm LP filter (acceptor)).
Sequence of LRRK2 (Q5S007 whole entry, species assumed, the tested form may be a part): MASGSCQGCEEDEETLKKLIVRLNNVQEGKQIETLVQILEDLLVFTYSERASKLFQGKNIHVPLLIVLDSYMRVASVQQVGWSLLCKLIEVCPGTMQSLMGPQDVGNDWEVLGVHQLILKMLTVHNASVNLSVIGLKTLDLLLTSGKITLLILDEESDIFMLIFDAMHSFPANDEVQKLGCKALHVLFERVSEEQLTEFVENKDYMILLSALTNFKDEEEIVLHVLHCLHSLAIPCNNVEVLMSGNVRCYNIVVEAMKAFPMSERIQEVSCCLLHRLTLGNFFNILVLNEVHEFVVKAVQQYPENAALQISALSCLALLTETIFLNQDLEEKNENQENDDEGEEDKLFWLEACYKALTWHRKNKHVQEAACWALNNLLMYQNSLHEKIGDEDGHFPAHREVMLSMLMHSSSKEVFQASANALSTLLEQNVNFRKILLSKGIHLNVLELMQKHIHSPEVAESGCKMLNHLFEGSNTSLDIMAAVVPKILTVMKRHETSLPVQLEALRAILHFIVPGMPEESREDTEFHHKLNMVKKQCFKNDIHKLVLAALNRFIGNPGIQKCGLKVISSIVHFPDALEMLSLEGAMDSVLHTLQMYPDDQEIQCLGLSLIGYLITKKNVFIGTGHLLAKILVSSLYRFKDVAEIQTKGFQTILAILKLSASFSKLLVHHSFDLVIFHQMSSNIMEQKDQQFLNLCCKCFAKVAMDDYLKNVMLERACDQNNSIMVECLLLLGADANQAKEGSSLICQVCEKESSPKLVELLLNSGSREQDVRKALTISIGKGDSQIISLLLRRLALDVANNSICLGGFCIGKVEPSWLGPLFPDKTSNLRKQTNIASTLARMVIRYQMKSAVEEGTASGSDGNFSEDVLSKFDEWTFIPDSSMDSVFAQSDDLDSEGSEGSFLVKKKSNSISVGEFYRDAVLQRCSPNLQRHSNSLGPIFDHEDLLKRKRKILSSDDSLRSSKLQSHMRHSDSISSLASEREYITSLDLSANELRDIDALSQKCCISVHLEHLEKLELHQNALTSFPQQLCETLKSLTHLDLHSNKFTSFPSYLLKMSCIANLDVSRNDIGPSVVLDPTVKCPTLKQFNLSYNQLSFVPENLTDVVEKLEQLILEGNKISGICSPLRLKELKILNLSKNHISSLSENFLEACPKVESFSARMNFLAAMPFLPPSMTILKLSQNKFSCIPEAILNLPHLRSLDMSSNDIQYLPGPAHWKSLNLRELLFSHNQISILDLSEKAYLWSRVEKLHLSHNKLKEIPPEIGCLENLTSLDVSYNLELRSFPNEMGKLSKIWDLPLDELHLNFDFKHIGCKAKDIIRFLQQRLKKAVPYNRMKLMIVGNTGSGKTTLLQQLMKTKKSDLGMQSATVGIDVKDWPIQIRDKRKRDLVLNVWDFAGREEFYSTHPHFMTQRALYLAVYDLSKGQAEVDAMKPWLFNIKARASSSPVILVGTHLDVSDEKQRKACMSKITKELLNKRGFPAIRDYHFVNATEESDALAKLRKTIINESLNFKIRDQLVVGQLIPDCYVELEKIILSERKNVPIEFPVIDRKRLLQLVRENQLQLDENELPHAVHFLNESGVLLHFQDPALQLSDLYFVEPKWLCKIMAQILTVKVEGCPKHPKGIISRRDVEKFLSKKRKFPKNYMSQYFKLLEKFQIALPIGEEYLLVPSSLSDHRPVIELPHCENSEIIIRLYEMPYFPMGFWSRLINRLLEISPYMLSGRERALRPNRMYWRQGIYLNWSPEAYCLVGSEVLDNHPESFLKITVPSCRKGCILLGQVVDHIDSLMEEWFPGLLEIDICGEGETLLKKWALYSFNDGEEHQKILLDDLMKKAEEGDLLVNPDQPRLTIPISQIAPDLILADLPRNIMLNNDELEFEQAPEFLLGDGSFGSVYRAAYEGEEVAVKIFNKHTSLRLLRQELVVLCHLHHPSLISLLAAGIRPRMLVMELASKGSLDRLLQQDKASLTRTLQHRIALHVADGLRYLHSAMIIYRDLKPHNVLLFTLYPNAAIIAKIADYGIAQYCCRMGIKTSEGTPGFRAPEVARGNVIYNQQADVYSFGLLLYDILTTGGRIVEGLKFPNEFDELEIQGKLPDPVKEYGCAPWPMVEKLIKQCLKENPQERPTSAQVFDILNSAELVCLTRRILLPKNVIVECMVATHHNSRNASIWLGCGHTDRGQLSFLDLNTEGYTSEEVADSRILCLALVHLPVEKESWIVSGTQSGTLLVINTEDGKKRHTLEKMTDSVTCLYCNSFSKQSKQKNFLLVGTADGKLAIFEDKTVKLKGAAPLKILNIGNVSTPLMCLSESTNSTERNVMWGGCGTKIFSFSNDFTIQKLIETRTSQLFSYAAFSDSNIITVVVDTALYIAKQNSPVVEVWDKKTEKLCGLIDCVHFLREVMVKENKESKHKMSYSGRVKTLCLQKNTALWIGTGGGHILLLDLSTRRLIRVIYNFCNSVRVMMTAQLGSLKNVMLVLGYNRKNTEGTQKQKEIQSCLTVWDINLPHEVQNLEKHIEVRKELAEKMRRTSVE
To confirm cellular potency for compounds described herein, the […] were used to detect engagement of STK3 and STK4 in live cells using the NanoBRET™ intracellular kinase assay, marking the first report of a NanoBRET assay for STK3 and STK4. This assay measured the apparent affinity of test compounds by competitive displacement of the NanoBRET™ tracer, reversibly bound to a NanoLuc® luciferase-kinase fusion in cells. To evaluate potential off-target activity of the inhibitors, the inhibition of LRRK2 in live cells by the STK3/4 inhibitors compounds described herein were measured. Cultured HEK293 cells were either transfected with NanoLuc®-STK3 fusion vector, NanoLuc®-STK4 fusion, or with NanoLuc®-LRRK2 vector for 24 h. A 50 nM tracer and these compounds were added to cells and incubated for 2 h. These compounds tested in the assays decreased the NanoBRET™ signal for both STK3 and STK4 at varying potencies and confirming cellular target engagement of STK3/4.

Series [8] concerns the target T1, STK4. Nature of the series: NanoBRET intracellular kinase assay, STK4. The series is classed as cell-based. Particulars: transfected HEK293 cells, 2 h. As for the experimental part: as §2, §3
Series [9] relates to ULK1/2 and Aurora kinases. The following applies: including inhibition of ULK1/2 and Aurora kinases; cited from earlier work.
The mark [10] stands for this setting: NanoBRET, transfected HEK293 cells, 2 h, read-out: STK3: IC50.
The mark [11] stands for this setting: ADP-Glo, 50 μM ATP, read-out: STK4 IC50.

T2 sequence (Q13188 whole entry): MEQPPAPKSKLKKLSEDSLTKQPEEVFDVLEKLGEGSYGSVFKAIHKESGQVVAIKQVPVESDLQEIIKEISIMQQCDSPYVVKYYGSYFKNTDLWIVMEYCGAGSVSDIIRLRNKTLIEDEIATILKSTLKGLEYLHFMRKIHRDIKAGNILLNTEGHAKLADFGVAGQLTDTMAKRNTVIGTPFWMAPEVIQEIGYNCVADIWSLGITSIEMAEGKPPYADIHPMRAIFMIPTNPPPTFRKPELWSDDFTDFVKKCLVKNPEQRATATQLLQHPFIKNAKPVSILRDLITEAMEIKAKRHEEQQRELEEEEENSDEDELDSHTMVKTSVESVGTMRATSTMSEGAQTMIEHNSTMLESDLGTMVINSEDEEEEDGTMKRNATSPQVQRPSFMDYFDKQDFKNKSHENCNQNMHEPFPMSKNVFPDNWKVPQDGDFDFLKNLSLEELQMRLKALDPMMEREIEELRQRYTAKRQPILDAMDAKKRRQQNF
T1 sequence (Q13043 whole entry): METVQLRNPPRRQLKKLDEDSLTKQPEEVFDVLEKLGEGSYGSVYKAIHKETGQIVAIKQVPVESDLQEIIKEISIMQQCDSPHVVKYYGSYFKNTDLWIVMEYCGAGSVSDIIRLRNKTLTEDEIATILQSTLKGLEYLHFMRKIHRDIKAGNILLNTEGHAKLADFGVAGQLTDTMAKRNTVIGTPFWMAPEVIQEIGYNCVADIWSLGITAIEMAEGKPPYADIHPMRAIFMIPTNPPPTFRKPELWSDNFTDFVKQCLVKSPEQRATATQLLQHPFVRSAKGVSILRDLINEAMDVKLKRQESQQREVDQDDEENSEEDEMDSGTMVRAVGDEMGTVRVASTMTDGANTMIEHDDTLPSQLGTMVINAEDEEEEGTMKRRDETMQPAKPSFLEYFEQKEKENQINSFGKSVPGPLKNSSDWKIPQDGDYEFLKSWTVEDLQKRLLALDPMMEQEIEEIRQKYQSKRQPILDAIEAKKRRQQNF

Consider `Cc1ccccc1-c1c[nH]c2ncnc(N3CCOCC3)c12` [Compound 2, 4-(5-(o-Tolyl)-7H-pyrrolo[2,3-d]pyrimidin-4-yl)morpholine], for which the values for the IC50 at STK4 [1] and at STK3 [2] were 1 to 5 µM and above 5 µM, respectively. The “relative expression level of phosphorylated MOB1” value (“relative expression level” for short) in [3] is “significant reduction”.
On to `Fc1cccc(-c2c[nH]c3ncnc(N4CCOCC4)c23)c1` [Compound 7, 4-(5-(3-Fluorophenyl)-7H-pyrrolo[2,3-d]pyrimidin-4-yl)morpholine], for which the IC50 on STK3 [2] is below 1 µM; on STK3 [7] (setting [10]), below 1 µM; on LRRK2, at most 1 µM. In series [4], the concentration at 30 min is 6 µM. In series [4], this compound gave a concentration at 1 h of 14.9 µM. Further, the ΔTm at 10 µM on STK3 [5] was determined as 8.4 °C. The “YAP/TAZ-TEAD activity (luciferase reporter)” value in series [6] is “marked increase”.
Regarding `CC(CO)CN(C)c1ncnc2[nH]cc(-c3cccc(Cl)c3)c12` (stereo not shown) [Compound 121, 3-((5-(3-chlorophenyl)-7H-pyrrolo[2,3-d]pyrimidin-4-yl)(methyl)amino)-2-methylpropan-1-ol], the 50% inhibitory concentration (IC50) was below 1 µM at STK4 [1] (setting [11]); below 1 µM on STK3 [2]; below 1 µM at STK3 [7] (setting [10]); below 1 µM at STK4 [8]; at least 2 µM against LRRK2. In [4], this compound registered a concentration at 30 min of 1.8 µM. This compound also displayed a concentration at 1 h in series [4] of 0.006 µM. The “relative expression level” value in series [3] is recorded as “significant reduction”.
Take `Cc1cccc(-c2c[nH]c3ncnc(N4CCOCC4)c23)c1` [Compound 5, 4-(5-(m-Tolyl)-7H-pyrrolo[2,3-d]pyrimidin-4-yl)morpholine]: the half-maximal inhibitory concentration (IC50) at STK3 [2] is below 1 µM; at STK3 [7] (setting [10]) it was below 1 µM; against LRRK2, at most 1 µM. Besides, the concentration at 30 min in [4] worked out at 2.8 µM. The compound further came in with a concentration at 1 h in [4] of 7.3 µM.
Take `CNC1CCN(c2ncnc3[nH]cc(-c4cccc(Cl)c4)c23)CC1` [Compound 106, 1-(5-(3-chlorophenyl)-7H-pyrrolo[2,3-d]pyrimidin-4-yl)-N-methylpiperidin-4-amine]: in [4], the concentration at 30 min was 2.2 µM and the concentration at 1 h turned out to be 7.8 µM. For the same compound, at LRRK2, the IC50 is at least 2 µM.
Turning to `CN(CCO)c1ncnc2[nH]cc(-c3cccc(Cl)c3)c12` [Compound 108, 2-((5-(3-chlorophenyl)-7H-pyrrolo[2,3-d]pyrimidin-4-yl)(methyl)amino)ethan-1-ol], the 50% inhibitory concentration (IC50) at STK4 [1] (setting [11]), on STK3 [2], on STK3 [7] (setting [10]) and against STK4 [8] was below 1 µM in each case. Also, the concentration at 30 min in series [4] stood at 7.3 µM. Also, in series [4], the concentration at 1 h was found to be 0.9 µM. Besides, in series [3], the “relative expression level” value was “significant reduction”. Besides, the “LRRK2: IC50” value on LRRK2 was “B (B: IC50 is >2000 nM and <1000 nM)”.
`Clc1cccc(-c2c[nH]c3ncnc(N4CCCCC4)c23)c1` [Compound 15, 5-(3-Chlorophenyl)-4-(piperidin-1-yl)-7H-pyrrolo[2,3-d]pyrimidine]: the 50% inhibitory concentration (IC50) at STK3 [2] was below 1 µM; against STK3 [7] it was 1 to 5 µM. Further, the concentration at 30 min in series [4] is 3.7 µM. The concentration at 1 h in series [4] was found to be 6.5 µM. Moreover, the ΔTm at 10 µM on STK3 [5] came out at 8.3 °C. For the same compound, the “LRRK2: IC50” value on LRRK2 is “B (B: IC50 is >2000 nM and <1000 nM)”.
For the compound `OCCCNc1ncnc2[nH]cc(-c3cccc(Cl)c3)c12` [Compound 119, 3-((5-(3-chlorophenyl)-7H-pyrrolo[2,3-d]pyrimidin-4-yl)amino)propan-1-ol], the IC50 at STK3 [2] was below 1 µM; on STK3 [7] (setting [10]) it was below 1 µM; against LRRK2, at least 2 µM. Besides, in series [4], the concentration at 30 min came to 4.5 µM. In series [4], this compound gave a concentration at 1 h of 0.003 µM.
`CN1C(=O)c2sccc2N(C)c2nc(Nc3ccc(S(N)(=O)=O)cc3)ncc21` [XMU-MP-1]: the “off-target activity in vitro” value in [9] is recorded as “notable off-target activity”.

What is called IC50 is the midpoint of a concentration-inhibition curve. A word on the ΔTm: it is the change in melting temperature against a reference sample.
